In ChEMBL document CHEMBL5465560, “Selectivity Literature for EUbOPEN Chemogenomic Library” (2024):
Blank lines part the entries; values can stand above or below the compound they belong to.

Tests used:
[1] = molecular target: T1, Activin receptor type-1B (Homo sapiens) (UniProt P36896); assay: Selectivity interaction (Ambit KINOMEscan and KiNATiv profiling in Jurkat cells) EUB0000090b ACVR1B; assay type: cell-based; settings: at 1 µM
T1 sequence (whole entry): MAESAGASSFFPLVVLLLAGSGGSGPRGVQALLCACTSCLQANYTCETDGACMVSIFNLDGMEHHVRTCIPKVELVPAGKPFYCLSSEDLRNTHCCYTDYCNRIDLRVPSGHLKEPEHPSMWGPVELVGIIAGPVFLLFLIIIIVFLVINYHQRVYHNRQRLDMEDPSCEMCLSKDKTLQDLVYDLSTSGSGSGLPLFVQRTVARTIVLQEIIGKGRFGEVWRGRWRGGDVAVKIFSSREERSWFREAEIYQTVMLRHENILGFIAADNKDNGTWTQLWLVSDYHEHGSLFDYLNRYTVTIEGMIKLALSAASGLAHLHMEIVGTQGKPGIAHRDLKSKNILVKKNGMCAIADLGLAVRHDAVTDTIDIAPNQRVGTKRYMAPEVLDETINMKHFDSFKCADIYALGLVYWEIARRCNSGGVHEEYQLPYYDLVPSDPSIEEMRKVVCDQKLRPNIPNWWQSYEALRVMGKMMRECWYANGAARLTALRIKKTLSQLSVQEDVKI

[2] = molecular target: Activin receptor type-1-like (Homo sapiens) (UniProt P37023); assay: Selectivity interaction (KinomeScan (DiscoverX)) EUB0000607a ACVRL1; settings: at 10 µM
Chain of Activin receptor type-1-like (Homo sapiens) (P37023 whole entry): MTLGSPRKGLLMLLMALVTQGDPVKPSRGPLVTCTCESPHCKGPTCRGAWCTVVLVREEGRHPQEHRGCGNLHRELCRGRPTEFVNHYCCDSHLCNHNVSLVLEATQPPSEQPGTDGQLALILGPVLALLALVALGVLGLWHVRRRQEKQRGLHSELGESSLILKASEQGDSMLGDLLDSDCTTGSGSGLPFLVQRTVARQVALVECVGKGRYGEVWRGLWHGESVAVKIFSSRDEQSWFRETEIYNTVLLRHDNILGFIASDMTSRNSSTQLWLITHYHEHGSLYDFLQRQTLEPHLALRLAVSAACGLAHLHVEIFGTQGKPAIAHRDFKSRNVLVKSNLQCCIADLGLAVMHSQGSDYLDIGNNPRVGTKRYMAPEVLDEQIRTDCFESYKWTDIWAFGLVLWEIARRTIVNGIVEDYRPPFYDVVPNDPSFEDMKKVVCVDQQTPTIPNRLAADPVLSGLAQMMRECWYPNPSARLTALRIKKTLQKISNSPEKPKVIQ

[3] = molecular target: T2, Cyclin-G-associated kinase (Homo sapiens) (UniProt O14976); assay: Selectivity interaction (KinomeScan (DiscoverX)) EUB0000607a GAK; settings: at 10 µM
T2 sequence (whole entry): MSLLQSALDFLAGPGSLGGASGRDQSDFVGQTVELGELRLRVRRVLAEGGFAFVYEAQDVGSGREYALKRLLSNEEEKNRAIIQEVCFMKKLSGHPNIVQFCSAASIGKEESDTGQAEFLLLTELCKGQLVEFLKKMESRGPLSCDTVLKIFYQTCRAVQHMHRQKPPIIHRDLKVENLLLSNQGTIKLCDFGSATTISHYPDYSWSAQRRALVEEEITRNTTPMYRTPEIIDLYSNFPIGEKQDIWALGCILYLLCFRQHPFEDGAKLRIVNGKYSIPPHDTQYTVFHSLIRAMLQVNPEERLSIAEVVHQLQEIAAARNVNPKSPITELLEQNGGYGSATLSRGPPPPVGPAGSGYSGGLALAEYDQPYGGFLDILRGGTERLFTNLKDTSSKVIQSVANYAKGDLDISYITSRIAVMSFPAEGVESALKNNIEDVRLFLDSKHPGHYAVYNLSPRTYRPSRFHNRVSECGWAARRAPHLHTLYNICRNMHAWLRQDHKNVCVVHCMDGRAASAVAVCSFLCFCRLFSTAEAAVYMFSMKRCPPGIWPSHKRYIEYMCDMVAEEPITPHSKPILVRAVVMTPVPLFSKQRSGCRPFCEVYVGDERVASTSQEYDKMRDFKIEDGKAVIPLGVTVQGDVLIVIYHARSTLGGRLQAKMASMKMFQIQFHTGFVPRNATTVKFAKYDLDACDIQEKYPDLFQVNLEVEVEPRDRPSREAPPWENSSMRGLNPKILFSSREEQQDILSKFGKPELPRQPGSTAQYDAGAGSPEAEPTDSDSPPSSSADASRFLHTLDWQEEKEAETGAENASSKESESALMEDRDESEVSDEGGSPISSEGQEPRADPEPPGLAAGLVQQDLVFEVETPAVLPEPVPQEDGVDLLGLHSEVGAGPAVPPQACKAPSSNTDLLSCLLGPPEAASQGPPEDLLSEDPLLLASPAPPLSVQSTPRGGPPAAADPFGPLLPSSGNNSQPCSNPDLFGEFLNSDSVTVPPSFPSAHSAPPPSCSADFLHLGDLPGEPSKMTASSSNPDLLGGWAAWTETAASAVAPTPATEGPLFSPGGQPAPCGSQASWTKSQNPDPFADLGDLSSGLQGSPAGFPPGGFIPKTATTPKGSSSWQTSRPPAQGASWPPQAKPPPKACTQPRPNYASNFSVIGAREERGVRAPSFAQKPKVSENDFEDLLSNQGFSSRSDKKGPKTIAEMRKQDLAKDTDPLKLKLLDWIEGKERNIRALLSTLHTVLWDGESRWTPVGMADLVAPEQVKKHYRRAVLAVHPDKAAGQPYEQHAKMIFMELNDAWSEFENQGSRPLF

[4] = molecular target: Interferon-induced, double-stranded RNA-activated protein kinase (Homo sapiens) (UniProt P19525); assay: Selectivity interaction (ActivX KiNativ screen (kinase selectivity in THP-1 cell lysates)) EUB0000639a EIF2AK2; assay type: subcellular; settings: lysate, at 0.04 µM
Chain of Interferon-induced, double-stranded RNA-activated protein kinase (Homo sapiens) (P19525 whole entry): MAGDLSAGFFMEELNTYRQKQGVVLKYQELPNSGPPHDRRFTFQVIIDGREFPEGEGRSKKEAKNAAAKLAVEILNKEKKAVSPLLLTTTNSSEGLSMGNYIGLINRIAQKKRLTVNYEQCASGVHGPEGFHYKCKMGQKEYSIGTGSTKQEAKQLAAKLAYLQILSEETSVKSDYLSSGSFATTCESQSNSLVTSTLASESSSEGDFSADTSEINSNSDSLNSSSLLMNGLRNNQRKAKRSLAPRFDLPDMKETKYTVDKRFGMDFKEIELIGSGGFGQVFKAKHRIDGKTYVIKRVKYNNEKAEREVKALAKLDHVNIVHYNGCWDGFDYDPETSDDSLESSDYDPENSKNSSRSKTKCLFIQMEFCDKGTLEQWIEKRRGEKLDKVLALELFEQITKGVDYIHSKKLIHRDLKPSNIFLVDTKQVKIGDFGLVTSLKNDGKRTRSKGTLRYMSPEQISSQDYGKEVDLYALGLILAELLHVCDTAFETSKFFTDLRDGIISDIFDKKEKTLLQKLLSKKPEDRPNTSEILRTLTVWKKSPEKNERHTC

[5] = molecular target: T3, Cyclin-dependent kinase-like 5 (Homo sapiens) (UniProt O76039); assay: Selectivity interaction (KinomeScan (DiscoverX)) EUB0000229b CDKL5; settings: at 10 µM
T3 sequence (whole entry): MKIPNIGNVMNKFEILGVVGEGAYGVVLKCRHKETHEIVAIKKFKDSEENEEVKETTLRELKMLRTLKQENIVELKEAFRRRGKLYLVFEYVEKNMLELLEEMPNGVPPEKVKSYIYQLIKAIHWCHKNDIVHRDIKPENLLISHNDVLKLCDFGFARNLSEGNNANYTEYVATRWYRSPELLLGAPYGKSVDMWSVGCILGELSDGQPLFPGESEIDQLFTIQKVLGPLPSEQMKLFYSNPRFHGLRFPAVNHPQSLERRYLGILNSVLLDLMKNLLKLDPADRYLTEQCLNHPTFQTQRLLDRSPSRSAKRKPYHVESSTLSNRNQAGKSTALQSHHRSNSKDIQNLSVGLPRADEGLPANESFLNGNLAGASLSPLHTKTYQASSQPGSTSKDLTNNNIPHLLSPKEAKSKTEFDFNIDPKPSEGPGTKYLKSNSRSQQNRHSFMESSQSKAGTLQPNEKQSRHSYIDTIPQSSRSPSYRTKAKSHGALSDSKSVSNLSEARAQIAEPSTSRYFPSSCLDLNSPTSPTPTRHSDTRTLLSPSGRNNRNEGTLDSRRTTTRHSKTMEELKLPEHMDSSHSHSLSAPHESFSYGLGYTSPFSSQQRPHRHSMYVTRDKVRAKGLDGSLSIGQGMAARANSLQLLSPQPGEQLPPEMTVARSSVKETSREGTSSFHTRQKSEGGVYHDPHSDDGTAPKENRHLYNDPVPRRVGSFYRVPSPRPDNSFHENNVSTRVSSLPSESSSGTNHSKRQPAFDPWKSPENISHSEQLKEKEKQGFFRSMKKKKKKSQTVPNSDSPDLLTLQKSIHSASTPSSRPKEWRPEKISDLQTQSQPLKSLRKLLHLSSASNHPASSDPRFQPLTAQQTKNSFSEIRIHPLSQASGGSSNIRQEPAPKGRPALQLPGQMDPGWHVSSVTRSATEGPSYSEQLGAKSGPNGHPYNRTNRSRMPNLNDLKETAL

SMILES: CN(C)C/C=C/C(=O)Nc1ccc(C(=O)N2CCCC(Nc3ncc(Cl)c(-c4c[nH]c5ccccc45)n3)C2)cc1 (stereo not given)
- % of control [1]: 96%

SMILES: CNC(=O)Nc1ccc(-c2nc(N3CC4CCC(C3)O4)c3cnn(C4CCC5(CC4)OCCO5)c3n2)cc1
- % of control [2]: 100%
- % of control [3]: 75%

- % of inhibition [4]: 3.1%
SMILES: CC[C@@H]1[C@H](F)C(=O)N[C@@H]1COc1nccc2cc(C(N)=O)c(OC)cc12 [ZIMLOVISERTIB]

SMILES: COc1cc(N(C)c2ccnc3ccc(C(F)(F)F)cc23)cc(OC)c1OC
- % binding [5]: 86%
